Results: US20250134794A1, “BIOACTIVE WALNUT PEPTIDES AND COMPOSITIONS FOR TOPICAL TREATMENT OF SKIN” (L'OREAL, priority 2023, published 2025)
Where no end group is shown, it is not given here.

What was measured:
Type in all cases: cell-based
[1] = system: Adult Dermal Human Fibroblasts; assay: Mitochondrial activity in aged fibroblasts (TMRE-Mitochondrial Membrane Potential Assay Kit); settings: 250 μM, 7 days, TMRE stain; control = 1.00
Protocol: Adult Dermal Human Fibroblasts (Lot 2485, Passage 5, Cell Applications) were expanded and seeded into a 12-well glass bottom plate at a density of 10,000 cells/well. Cells were grown in Eagle's Minimal Essential Medium (EMEM) supplemented with Fetal Bovine Serum (FBS) and Penicillin-Streptomycin. Cells attached overnight and then culture media was aspirated and replaced with media containing either 100 uM or 250 uM of Peptide I, Peptide II, or Peptide III. Cells were cultured for 7 days with treatment with renewal of treatment medium every other day with the exception of weekends. On day 7, cells were stained with tetramethylrhodamine ethyl ester (TMRE) and imaged for mitochondrial activity following the protocol in the TMRE-Mitochondrial Membrane Potential Assay Kit (ab113852, Abcam). The active mitochondria (mean intensity normalized to control) were determined and are shown below, in Table 5.

Keratinocyte stem cells = assay: Holoclone count of keratinocyte stem cells; settings: 96 hours, control 24.80 ± 6.14
Protocol: Keratinocyte stem cells (Lot KSC870, Passage 2, Bioalternatives) were seeded in 96-well plates and cultured in Keratinocyte-SFM supplemented with Epidermal Growth Factor and Pituitary Extract. After 4 hours, media was replaced with that containing Peptide II or Peptide III, alone or in combination. Cells were incubated for 96 hours with treatment renewal after 24 hours. After 96 hours, the medium was removed, and cells were fixed with methanol at −20C. Cells were then stained for 10 minutes with a Papanicolaou solution and imaged. The number of holoclone clones were counted. Data was analyzed and plotted using GraphPad Prism. The holocolone count relative to control (normalized) is shown below in Table 3 for different concentrations of peptide II, Peptide III, and combinations of Peptide II and Peptide III.

Interleukin 8 (IL-8) = assay: Interleukin-8 released from Adult Dermal Human Fibroblasts (LEGENDplex Human Inflammation Panel); settings: 4 days treatment, concentration not given (100 uM or 250 uM)
Protocol: (§1) Adult Dermal Human Fibroblasts (Lot 2485, Passage 5, Cell Applications) were expanded and seeded into a 48-well plate at a density of 5,000 cells/well. Cells were grown in Eagle's Minimal Essential Medium (EMEM) supplemented with Fetal Bovine Serum (FBS) and Penicillin-Streptomycin. Cells attached overnight and then culture media was aspirated and replaced with media containing either 100 uM or 250 uM of Peptide I, Peptide II, or Peptide III. Cells were cultured for […] with treatment with renewal of treatment medium every other day with the exception of weekends. Media was collected at the end of the culture period. Inflammatory cytokines were quantified by running a LEGENDplex Human Inflammation Panel 1 13-plex (Catalogue #740809, Biolegend. Protein in the media supernatant was also quantified using the Pierce BCA Protein Assay Kit (Catalogue #23225, ThermoFisher). Microsoft Excel and GraphPad Prism were used for additional analysis and data presentation. The amounts of Interleukin 6 (IL-6) and Interleukin 8 (IL-8) released from the Adult Dermal Human Fibroblasts are shown below in Table 1 and graphically depicted in FIG. 1(a) (for IL-6) and FIG. 1(b) (for IL-8).

Interleukin 6 (IL-6) = assay: Interleukin-6 released from Adult Dermal Human Fibroblasts (LEGENDplex Human Inflammation Panel); settings: 4 days treatment, concentration not given (100 uM or 250 uM)
Protocol: as §1

[2] = system: epidermal growth factor (EGF); assay: Epidermal growth factor generated by reconstructed human epidermis (LEGENDplex Human Growth Factor Panel); settings: 250 μM, 7 days, control = 1.00
Protocol: (§2) Reconstructed human epidermis (RHE) (EPISKIN/S/13, Episkin) was received and samples were prepared for use. Upon arrival, inserts containing the RHE were removed from the multi-plate and placed in a 12-well plate containing maintenance medium. Tissue serving as untreated control were placed in regular maintenance medium; treatment groups were placed in maintenance medium containing 250 uM of Peptide I, II, or III alone or in combination. Medium was aspirated and replaced every other day with the exception of weekends. RHE was cultured at air-liquid interface at 37C, 5% CO2 and saturated humidity for 7 days. Media was collected at the end of the culture period. Growth factors were quantified by running a LEGENDplex Human Growth Factor Panel (Catalogue #740809, Biolegend. Protein in the media supernatant was also quantified using the Pierce BCA Protein Assay Kit (Catalogue #741061, ThermoFisher). Microsoft Excel and GraphPad Prism were used for additional analysis and data presentation. The amounts of epidermal growth factor (EGF), hepatocyte growth factor (HGF), and transforming growth factor alpha (TGFa) generated by the RHE are shown below in Table 2 and graphically shown in FIG. 2(a) (for EGF) and FIG. 2(b) (for HGF), and FIG. 2(c) (for TGFa).

[3] = system: transforming growth factor alpha (TGFa); assay: Transforming growth factor alpha generated by reconstructed human epidermis (LEGENDplex Human Growth Factor Panel); settings: 250 μM, 7 days, control = 1.00
Protocol: as §2

[4] = system: hepatocyte growth factor (HGF); assay: Hepatocyte growth factor generated by reconstructed human epidermis (LEGENDplex Human Growth Factor Panel); settings: 250 μM, 7 days, control = 1.00
Protocol: as §2

[5] = system: Adult Dermal Human Fibroblasts; assay: Autophagic vacuoles in aged fibroblasts (Autophagy Assay Kit); design: key: “↑” indicates and increase; “↓” indicates a decrease; “↔” indicates no change; settings: 7 days
Protocol: Adult Dermal Human Fibroblasts (Lot 2485, Passage 5, Cell Applications) were expanded and seeded into a 12-well glass bottom plate at a density of 10,000 cells/well. Cells were grown in Eagle's Minimal Essential Medium (EMEM) supplemented with Fetal Bovine Serum (FBS) and Penicillin-Streptomycin. Cells attached overnight and then culture media was aspirated and replaced with media containing either 100 uM or 250 uM of Peptide I, Peptide II, or Peptide III. Cells were cultured for 7 days with treatment with renewal of treatment medium every other day with the exception of weekends. On day 7, cells were stained and imaged for presence of autophagic vacuoles following the protocol in the Autophagy Assay Kit (ab139484, Abcam). The images were compared to determine whether the number of autophagic vacuoles increased, decreased, or remained unchanged. The results are reported below, in Table 4, where “↑” indicates and increase, “↓” indicates a decrease, and “↔” indicates no change.

## KVPPLLY [Peptide III]
[1]
  Active Mitochondria (Mean Intensity Normalized to Control): 0.97 ± 0.15
Keratinocyte stem cells; 0.2 mM
  Holoclone count: 27.40 ± 6.13
Keratinocyte stem cells; 0.4 mM
  Holoclone count: 36.50 ± 5.97
Interleukin 8 (IL-8); first line of each peptide
  Pg IL-8/μg Protein: 31.14 ± 22.26 Pg/μg Protein
Interleukin 8 (IL-8); second line of each peptide
  Pg IL-8/μg Protein: 32.58 ± 4.06 Pg/μg Protein
Interleukin 6 (IL-6); first line of each peptide
  Pg IL-6/μg Protein: 291.73 ± 61.03 Pg/μg Protein
Interleukin 6 (IL-6); second line of each peptide
  Pg IL-6/μg Protein: 333.61 ± 38.37 Pg/μg Protein
[2]
  EGF/μg Protein: 1.79 ± 0.28
[3]
  TGFa/μg Protein: 1.93 ± 0.60
[4]
  HGF/μg Protein: 1.01 ± 0.17
[5]; 100 μM
  Autophagic Vacuoles Presence (Compared to Control): ↑
[5]; 250 μM
  Autophagic Vacuoles Presence (Compared to Control): ↔

## TWLPLPR [Peptide I]
[1]
  Active Mitochondria (Mean Intensity Normalized to Control): 1.158 ± 0.17
Interleukin 8 (IL-8); first line of each peptide
  Pg IL-8/μg Protein: 22.72 ± 6.45 Pg/μg Protein
Interleukin 8 (IL-8); second line of each peptide
  Pg IL-8/μg Protein: 42.71 ± 11.29 Pg/μg Protein
Interleukin 6 (IL-6); first line of each peptide
  Pg IL-6/μg Protein: 154.52 ± 32.33 Pg/μg Protein
Interleukin 6 (IL-6); second line of each peptide
  Pg IL-6/μg Protein: 126.97 ± 29.10 Pg/μg Protein
[2]
  EGF/μg Protein: 1.58 ± 0.17
[3]
  TGFa/μg Protein: 1.37 ± 0.23
[4]
  HGF/μg Protein: 0.98 ± 0.20
[5]; 100 μM
  Autophagic Vacuoles Presence (Compared to Control): ↑
[5]; 250 μM
  Autophagic Vacuoles Presence (Compared to Control): ↑

## YVLLPSPK [Peptide II]
[1]
  Active Mitochondria (Mean Intensity Normalized to Control): 1.00 ± 0.19
Keratinocyte stem cells; 0.2 mM
  Holoclone count: 27.60 ± 7.59
Keratinocyte stem cells; 0.4 mM
  Holoclone count: 34.30 ± 8.85
Interleukin 8 (IL-8); first line of each peptide
  Pg IL-8/μg Protein: 20.36 ± 5.39 Pg/μg Protein
Interleukin 8 (IL-8); second line of each peptide
  Pg IL-8/μg Protein: 35.68 ± 11.37 Pg/μg Protein
Interleukin 6 (IL-6); first line of each peptide
  Pg IL-6/μg Protein: 265.86 ± 58.08 Pg/μg Protein
Interleukin 6 (IL-6); second line of each peptide
  Pg IL-6/μg Protein: 257.53 ± 38.82 Pg/μg Protein
[2]
  EGF/μg Protein: 1.23 ± 0.16
[3]
  TGFa/μg Protein: 1.56 ± 0.29
[4]
  HGF/μg Protein: 1.28 ± 0.25
[5]; 100 μM
  Autophagic Vacuoles Presence (Compared to Control): ↑
[5]; 250 μM
  Autophagic Vacuoles Presence (Compared to Control): ↑
